Measurements reported in US8470351B2, “Embedding antibiotic compounds in solid polymers” (The Research Foundation of the City University of New York, priority 2007, dated 2013).

Columns and labels:
[1] = Antimicrobial property of PVC surface with embedded agent; settings: agent added to PVC heated to 350° F., 10 g/square meter of finished surface; after pressing and cooling
Description: To a preparation of PVC prepared for finishing and heated to 350° F. is added the agent bis-1′,3′-(1-hexadecyl)-1,4-diazoniabicyclo[2.2.2]octane-2′-propanol tetrachloride in an amount of 10 g/square meter of finished surface. After pressing and cooling samples the surface is antimicrobial.

Escherichia coli = assay: Antimicrobial assessment of embedded polyester fabric on mineral salts agar; format: cell-based; settings: agent embedded in three polyester fabrics ("144×90", "Spandex" 5% lycra with polyester, "Darlington"), incubated at 28° C. for 28 days
Description: (§1) Three types of polyester fabric are embedded with bis-1′,3′-(1-hexadecyl)-1,4-diazoniabicyclo[2.2.2]octane-2′-propanol tetrachloride. Three polyester samples supplied by Gar are tested—a) “144×90”, b) “Spandex” which is 5% lycra with polyester, and c) “Darlington.” Each fabric sample is placed onto a mineral salts agar medium and then inoculated with either Staphylococus aureus or Escherichia coli. The inoculated specimen is then incubated at 28° C. for 28 days, in order to allow adequate time for bacterial growth. The fabric samples show a complete kill of both Staphylococus aureus and Escherichia coli.

Staphylococus aureus = assay: as above; format: cell-based; settings: agent embedded in three polyester fabrics ("144×90", "Spandex" 5% lycra with polyester, "Darlington"), incubated at 28° C. for 28 days
Description: as §1

For `CCCCCCCCCCCCCCCC[N+]12CC[N+](CC(O)C[N+]34CC[N+](CCCCCCCCCCCCCCCC)(CC3)CC4)(CC1)CC2.[Cl-].[Cl-].[Cl-].[Cl-]` (stereo not drawn) [bis-1′,3′-(1-hexadecyl)-1,4-diazoniabicyclo[2.2.2]octane-2′-propanol tetrachloride], the “antimicrobial property of the surface” value [1] was “antimicrobial”, the “kill of Escherichia coli on embedded fabric samples” value (Escherichia coli) was “complete kill” and the “kill of Staphylococus aureus on embedded fabric samples” value (Staphylococus aureus) was “complete kill”.
